Experimental data published in patent US7208517B1, “Endothelin antagonists” (Abbott Labortories, priority 1994, dated 2007).

These molecules were tested against T1, ETA Receptor (Rattus norvegicus, UniProt P26684) (assay: [125I]ET-1 binding to membranes from MMQ cells (ETA receptor binding assay, Table 4)). Conditions: test compound at 1 μM; 0.1 nM [125I]ET-1, MMQ cell membranes, 4 hours at 25° C.
T1 construct: endogenous in cells; host or cells: MMQ rat pituitary cells (membranes)
T1 sequence (P26684 21-426): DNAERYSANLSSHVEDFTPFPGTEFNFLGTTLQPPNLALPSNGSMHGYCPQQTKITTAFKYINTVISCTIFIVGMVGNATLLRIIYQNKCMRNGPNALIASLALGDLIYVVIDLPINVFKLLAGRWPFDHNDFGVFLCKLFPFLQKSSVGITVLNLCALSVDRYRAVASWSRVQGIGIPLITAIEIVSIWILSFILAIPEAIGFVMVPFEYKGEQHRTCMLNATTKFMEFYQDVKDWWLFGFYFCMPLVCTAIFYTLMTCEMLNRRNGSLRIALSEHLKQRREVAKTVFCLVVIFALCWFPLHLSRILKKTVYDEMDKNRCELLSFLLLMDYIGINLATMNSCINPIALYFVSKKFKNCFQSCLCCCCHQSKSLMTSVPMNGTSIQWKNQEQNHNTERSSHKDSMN
Description: Preparation of Membranes from MMQ Cells:
MMQ [MacLeod/MacQueen/Login cell line (prolactin secreting rat pituitary cells)] cells from 150 mL culture flasks were collected by centrifugation (1000×g for 10 min) and then homogenized in 25 mL of 10 mM Hepes (pH 7.4) containing 0.25 M sucrose and protease inhibitors [3 mM EDTA, 0.1 mM PMSF, and 5 μg/mL Pepstatin A] by a micro ultrasonic cell disrupter (Kontes). The mixture was centrifuged at 1000×g for 10 min. The supernatant was collected and centrifuged at 60,000×g for 60 min. The precipitate was resuspended in 20 mM Tris, pH 7.4 containing the above protease inhibitors and centrifuged again. The final pellet was resuspended in 20 mM Tris, pH 7.4 containing protease inhibitors and stored at −80° C. until used. Protein content was determined by the Bio-Rad dye-binding protein assay.
Binding assays were performed in 96-well microtiter plates pretreated with 0.1% BSA. […] After incubation, unbound ligands were separated from bound ligands by a vacuum filtration method using glass-fiber filter strips in PHD cell harvesters (Cambridge Technology, Inc., MA), followed by washing the filter strips with saline (1 mL) for three times. Nonspecific binding was determined in the presence of 1 μM ET-1.

SMILES | % Inhibition of ETA at 1 μM [%]
CCCN(CC1CC1)C(=O)CN1CC(c2ccc3c(c2)OCO3)C(C(=O)O)C1c1ccc(OC)cc1 (stereo not drawn) [Example 38, trans,trans-2-(4-Methoxyphenyl)-4-(1,3-benzodioxol-5-yl)-1-(N-cyclopropylmethyl-N-propylaminocarbonylmethyl)-pyrrolidine-3-carboxylic acid] | 100.0
CCCCCN(C)C(=O)CN1CC(c2ccc3c(c2)OCO3)C(C(=O)O)C1c1ccc(OC)cc1 (stereo not drawn) [Example 39, trans,trans-2-(4-Methoxyphenyl)-4-(1,3-benzodioxol-5-yl)-1-(N-methyl-N-pentylaminocarbonylmethyl)-pyrrolidine-3-carboxylic acid] | 83.6
C#CCN(C)C(=O)CN1CC(c2ccc3c(c2)OCO3)C(C(=O)O)C1c1ccc(OC)cc1 (stereo not drawn) [Example 41, trans,trans-2-(4-Methoxyphenyl)-4-(1,3-benzodioxol-5-yl)-1-(N-methyl-N-(2-propynyl)aminocarbonylmethyl)-pyrrolidine-3-carboxylic acid] | 89.9
CCCCCCN(C)C(=O)CN1CC(c2ccc3c(c2)OCO3)C(C(=O)O)C1c1ccc(OC)cc1 (stereo not drawn) [Example 42, trans,trans-2-(4-Methoxyphenyl)-4-(1,3-benzodioxol-5-yl)-1-(N-methyl-N-(n-hexyl)aminocarbonylmethyl)-pyrrolidine-3-carboxylic acid] | 95.2
CCN(CC)C(=O)CN1CC(c2ccc3c(c2)OCO3)C(C(=O)O)C1c1ccc(OC)cc1 (stereo not drawn) [Example 44, trans,trans-2-(4-Methoxyphenyl)-4-(1,3-benzodioxol-5-yl)-1-(N,N-diethylaminocarbonylmethyl)-pyrrolidine-3-carboxylic acid] | 91.3
COc1ccc(C2C(C(=O)O)C(c3ccc4c(c3)OCO4)CN2CC(=O)N(C)c2ccccc2)cc1 (stereo not drawn) [Example 45, trans,trans-2-(4-Methoxyphenyl)-4-(1,3-benzodioxol-5-yl)-1-(N-methyl-N-phenylaminocarbonylmethyl)-pyrrolidine-3-carboxylic acid] | 85.4
CCCN(C)C(=O)CN1CC(c2ccc3c(c2)CCO3)C(C(=O)O)C1c1ccc(OC)cc1 (stereo not drawn) [Example 52, trans,trans-2-(4-Methoxyphenyl)-4-(2,3-dihydrobenzofuran-5-yl)-1-(N-methyl-N-propyl)aminocarbonylmethyl)-pyrrolidine-3-carboxylic acid] | 84.0
CCCN(C)C(=O)CN1CC(c2ccc(OC)c(OC)c2)C(C(=O)O)C1c1ccc(OC)cc1 (stereo not drawn) [Example 54, trans,trans-2-(4-Methoxyphenyl)-4-(3,4-dimethoxyphenyl)-1-(N-methyl-N-propyl)aminocarbonylmethyl)-pyrrolidine-3-carboxylic acid] | 64.6
CCCN(C)C(=O)CN1CC(c2cccc(OC)c2)C(C(=O)O)C1c1ccc(OC)cc1 (stereo not drawn) [Example 55, trans,trans-2-(4-Methoxyphenyl)-4-(3-methoxyphenyl)-1-(N-methyl-N-propyl)aminocarbonylmethyl)-pyrrolidine-3-carboxylic acid] | 50.5
CCCN(C)C(=O)CN1CC(c2ccc3ccccc3c2)C(C(=O)O)C1c1ccc(OC)cc1 (stereo not drawn) [Example 56, trans,trans-2-(4-Methoxyphenyl)-4-(2-naphthyl)-1-(N-methyl-N-propyl)aminocarbonylmethyl)-pyrrolidine-3-carboxylic acid] | 34.3
CC[S+]([O-])CCN1CC(c2ccc3c(c2)OCO3)C(C(=O)O)C1c1ccc(OC)cc1 (stereo not drawn) [Example 57, trans,trans-2-(4-Methoxyphenyl)-4-(1,3-benzodioxol-5-yl)-1-(2-(ethylsulfinyl)ethyl)-pyrrolidine-3-carboxylic acid] | 93.2
COc1ccc(C2C(C(=O)O)C(c3ccc4c(c3)OCO4)CN2CCN(C)C(=O)C(C)C)cc1 (stereo not drawn) [Example 61C, trans,trans-2-(4-Methoxyphenyl)-4-(1,3-benzodioxol-5-yl)-1-(2-(N-methyl-N-isobutyrylamino)ethyl)-pyrrolidine-3-carboxylic acid] | 90.6
COc1ccc(C2C(C(=O)O)C(c3ccc4c(c3)OCO4)CN2C/C=C/CC(C)C)cc1 (stereo not drawn) [Example 69D, trans,trans-2-(4-Methoxyphenyl)-4-(1,3-benzodioxol-5-yl)-1-N-(trans-5-methylhex-2-enyl)-pyrrolidine-3-carboxylic acid] | 37.4
CCCCC(=O)CN1CC(c2ccc3c(c2)OCO3)C(C(=O)O)C1c1ccc(OC)cc1 (stereo not drawn) [Example 72C, trans,trans-2-(4-Methoxyphenyl)-4-(1,3-benzodioxol-5-yl)-1-(valerylmethyl)-pyrrolidine-3-carboxylic acid] | 80.7
COc1ccc(C2C(C(=O)O)C(c3ccc4c(c3)OCO4)CN2CC(=O)N(C)Cc2ccc(OC)c(OC)c2)cc1 (stereo not drawn) [Example 73C, trans,trans-2-(4-Methoxyphenyl)-4-(1,3-benzodioxol-5-yl)-1-(N-(3,4-dimethoxybenzyl)-N-methylaminocarbonylmethyl)pyrrolidine-3-carboxylic acid] | 96.3
CCCCCC1C(C(=O)O)C(c2ccc3c(c2)OCO3)CN1CC(=O)N(CCCC)CCCC (stereo not drawn) [Example 92C, trans,trans-2-(Pentyl)-4-(1,3-benzodioxol-5-yl)-1-(N,N-di(n-butyl)aminocarbonylmethyl)pyrrolidine-3-carboxylic acid] | 107.4
CCCCCC1C(C(=O)O)C(c2ccc3c(c2)OCO3)CN1CCN(CCC)S(=O)(=O)CCC (stereo not drawn) [Example 93C, trans,trans-2-(Pentyl)-4-(1,3-benzodioxol-5-yl)-1-[2-(N-propyl-N-propylsulfonylamino)ethyl]pyrrolidine-3-carboxylic acid] | 59.2
CCCN(CCN1CC(c2ccc3c(c2)OCO3)C(C(=O)O)C1c1ccc(OC)cc1)S(=O)(=O)c1ccc(C)cc1C (stereo not drawn) [Example 123, trans,trans-1-(2-(N-Propyl-N-(2,4-dimethylbenzenesulfonyl)amino)ethyl)-2-(4-methoxyphenyl)-4-(1,3-benzodioxol-5-yl)pyrrolidine-3-carboxylic acid] | 89.7
CCCN(CCN1CC(c2ccc3c(c2)OCO3)C(C(=O)O)C1c1ccc(OC)cc1)S(=O)(=O)CCCCl (stereo not drawn) [Example 124, trans,trans-1-(2-(N-Propyl-N-(3-chloropropylsulfonyl)amino)ethyl)-2-(4-methoxyphenyl)-4-(1,3-benzodioxol-5-yl)pyrrolidine-3-carboxylic acid] | 91.0

Same assay, conditions: test compound at 1 μM; 0.1 nM [125I]ET-1, MMQ cell membranes, 4 hours at 25° C.; read-out: % Inhibition of ETA at 1 μM

SMILES | inhibition at 1 µM [%]
CCC[C@H](C(=O)N(CCC)CCC)N1C[C@@H](c2ccc3c(c2)OCO3)[C@@H](C(=O)O)[C@@H]1c1ccc(OC)cc1 [Example 75C, (2R,3R,4R)-2-(4-Methoxyphenyl)-4-(1,3-benzodioxol-5-yl)-1-((1R)-1-(N,N-dipropylaminocarbonyl)-1-butyl)pyrrolidine-3-carboxylic acid] | 95.3
CCC[C@H](C(=O)N(CCC)CCC)N1C[C@H](c2ccc3c(c2)OCO3)[C@H](C(=O)O)[C@H]1c1ccc(OC)cc1 [Example 76, (2S,3S,4S)-2-(4-Methoxyphenyl)-4-(1,3-benzodioxol-5-yl)-1-((1R)-1-(N,N-dipropylaminocarbonyl)-1-butyl)pyrrolidine-3-carboxylic acid] | 93.1
